In patent US7973024B2, “24-sulfoximine vitamin D3 compounds” (Cyctochroma Inc., priority 2002, dated 2011):

Target: T1, CYP27A1 (Homo sapiens, UniProt Q02318)
T1 sequence (Q02318 34-531): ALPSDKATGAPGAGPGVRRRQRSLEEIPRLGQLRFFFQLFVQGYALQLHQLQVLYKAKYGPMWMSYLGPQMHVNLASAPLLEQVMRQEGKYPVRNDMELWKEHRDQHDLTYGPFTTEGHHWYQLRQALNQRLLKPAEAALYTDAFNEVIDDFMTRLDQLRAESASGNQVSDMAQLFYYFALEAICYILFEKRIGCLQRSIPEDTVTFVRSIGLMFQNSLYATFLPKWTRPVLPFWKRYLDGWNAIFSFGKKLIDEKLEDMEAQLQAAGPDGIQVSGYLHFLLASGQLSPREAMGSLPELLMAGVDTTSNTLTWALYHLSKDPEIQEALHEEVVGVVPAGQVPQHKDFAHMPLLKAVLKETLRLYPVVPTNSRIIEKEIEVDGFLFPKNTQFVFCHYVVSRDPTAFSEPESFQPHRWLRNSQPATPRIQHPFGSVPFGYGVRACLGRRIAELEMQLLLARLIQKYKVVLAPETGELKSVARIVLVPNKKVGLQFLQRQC
Experiment: CYP27A1 enzyme assay
Format: biochemical

| IC50 [µM] | SMILES |
| --- | --- |
| > 1 | C=C1/C(=C\C=C2/CCC[C@]3(C)[C@@H]([C@H](C)CCS(=O)(=NC)c4ccccc4)CC[C@@H]23)C[C@@H](O)C[C@@H]1O (single isomer, unassigned) [I(e)] |
| > 1 | C=C1/C(=C\C=C2/CCC[C@]3(C)[C@@H]([C@H](C)CCS(=O)(=NC)c4ccccc4)CC[C@@H]23)C[C@@H](O)C[C@@H]1O (single isomer, unassigned) [I(g)] |
